From patent publication US20050282818A1, “Ubiquitin ligase inhibitors” (Rigel Pharmaceuticals, Inc., priority 2004, published 2005)

How the values were obtained:
APC11/APC2 = APC11/APC2 (Homo sapiens, UniProt Q9NYG5+Q9UJX6); assay: APC-11/APC-2 ligase assay (APC auto ubiquitination); type: biochemical; conditions: APC assay
Protocol: For the assays described below, the TRAF6/Uev1A/UBC13 assay is the biochemical plate-based assay of TRAF6 ligase activity using Ubc13 as the E2 enzyme. The gel-based assay is the biochemical solution-based TRAF6 ligase assay (by SDS-PAGE and Western blot) to confirm the plate-based ELISA assay. The APC assay is an assay which is another E3 ligase (APC2/APC11) biochemical assay.
E3 (His APC11/APC2— “APC”) auto ubiquitination was measured as described in U.S. patent application Ser. No. 09/826,312 (Publication No. U.S. 2002 0042083 A1), which is incorporated by reference in its entirety. Details of the protocol are described below. Activity in the presence of the compound was determined relative to a parallel control in which only DMSO was added. Values of the IC50 were typically determined using 6 or 8 different concentrations of the compound, although as few as 2 concentrations may be used to approximate the IC50 value.
Nickel coated 96 well plates (Pierce 15242) were blocked for 1 hour with 100 μl of blocking buffer at room temperature. The plates were washed 4 times with 225 μl of 1 […]PBS and 80 μl of the reaction buffer were added that contained 100 ng/well of Flag ubiquitin. To this, 10 μl of the test compound diluted in DMSO were added. After the test compound was added, 10 μl of E1 (human), E2 (Ubch5c), and APC in Protein Buffer was added to obtain a final concentration of 5 ng/well of E1, 20 ng/well of E2 and 100 ng/well of APC. The plates were shaken for 10 minutes and incubated at room temperature for 1 hour. After incubation, the plates were washed 4 times with 225 μl of 1×PBS and 100 μl/well of Antibody Mix were added to each well. The plates were incubated at room temperature for another hour after which they were washed 4 times with 225 μl of 1×PBS and 100 μl/well of Lumino substrate were added to each well. The luminescence was measured by using a BMG luminescence microplate reader. The Blocking Buffer (1% Casein in 1×PBS) was stored at 4° C. until use.
The reaction buffer consisted of 62.5 mM Tris pH 7.6 (Trizma Base—Sigma T 8524), 3 mM MgCl2 (Magnesium Chloride—Sigma M 2393), 1 mM DTT (Sigma D 9779), 2.5 mM ATP (Roche Boehringer Mann Corp. 635 316), 100 ng/well of Flag ubiquitin, 0.1% BSA (Sigma A 7906), and 0.05% Tween 20 (Sigma P 7949).
The Protein Buffer consisted of 20 mM Tris pH 7.6, 10% glycerol (Sigma G 5516) and 1 mM DTT.
The antibody mix consisted of 0.25% BSA (Sigma A 7906) in 1×PBS, 1/50,000 anti Flag (Sigma F 3165), 1/100,000 of anti Mouse IgG HRP (Jackson Imrunoresearch #115 035 146).
The substrate mix consisted of SuperSignal Substrate from Pierce (catalog number 37070ZZ) and was prepared by mixing 100 ml of the peroxide solution, 100 ml of the enhancer solution and 100 ml of Milli Q® water.

[1] = test system: ICAM-1 expression in A549 cells; assay: ICAM assay (IL-1 induced ICAM-1/CD54 expression in A549 cells); type: cell-based, human; conditions: Homo sapiens, A549, ICAM assay
Summary of the method: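 A549 cells, 10,000/well, preincubated with compound 1 h at 37° C, then stimulated with IL-1 (4 μl of 25 ng/ml added) for 4 h. Surface ICAM-1 detected by anti-CD54 plus anti-mouse IgG staining for 1 h, luminescent read-out after PBS washes.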

TRAF6/Uev1A/Ubc13 = molecular target: T1, TRAF6/Uev1A/Ubc13 (Homo sapiens, UniProt Q9Y4K3); assay: TRAF6/Uev1A/Ubc13 plate-based ubiquitin ligase assay; type: biochemical
T1 sequence (Q9Y4K3 1-522): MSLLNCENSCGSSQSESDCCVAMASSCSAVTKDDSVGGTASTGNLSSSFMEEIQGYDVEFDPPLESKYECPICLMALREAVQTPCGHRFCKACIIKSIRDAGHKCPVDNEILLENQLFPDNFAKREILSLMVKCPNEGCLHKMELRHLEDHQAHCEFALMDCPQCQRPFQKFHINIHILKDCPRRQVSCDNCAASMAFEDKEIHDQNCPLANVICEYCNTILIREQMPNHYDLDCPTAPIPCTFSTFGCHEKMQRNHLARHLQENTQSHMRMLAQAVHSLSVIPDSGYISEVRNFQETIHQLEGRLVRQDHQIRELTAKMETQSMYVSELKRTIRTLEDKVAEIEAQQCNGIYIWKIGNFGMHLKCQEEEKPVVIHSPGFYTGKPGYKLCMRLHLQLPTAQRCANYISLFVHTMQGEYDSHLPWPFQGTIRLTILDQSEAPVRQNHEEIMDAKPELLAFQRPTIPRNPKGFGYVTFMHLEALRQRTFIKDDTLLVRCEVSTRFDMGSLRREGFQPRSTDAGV
Summary of the method: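 Ligase activity was read as luminescence from anti-Flag/HRP detection of Flag-ubiquitin bound to casein-blocked Ni-plates alongside His-ubiquitin after a 1 h room-temperature reaction. Buffer: 62.5 mM Tris pH 7.5, 6.25 mM MgCl2, 1.0 mM DTT, 2 μM ATP; E1, Uev1a/Ubc13 and TRAF6 added last to start. IC50s derived across compound concentrations.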

Sequence of APC11/APC2 (Q9NYG5 whole entry): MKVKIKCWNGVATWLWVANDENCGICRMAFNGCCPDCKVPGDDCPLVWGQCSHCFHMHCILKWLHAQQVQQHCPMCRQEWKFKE
Sequence of APC11/APC2 (Q9UJX6 whole entry): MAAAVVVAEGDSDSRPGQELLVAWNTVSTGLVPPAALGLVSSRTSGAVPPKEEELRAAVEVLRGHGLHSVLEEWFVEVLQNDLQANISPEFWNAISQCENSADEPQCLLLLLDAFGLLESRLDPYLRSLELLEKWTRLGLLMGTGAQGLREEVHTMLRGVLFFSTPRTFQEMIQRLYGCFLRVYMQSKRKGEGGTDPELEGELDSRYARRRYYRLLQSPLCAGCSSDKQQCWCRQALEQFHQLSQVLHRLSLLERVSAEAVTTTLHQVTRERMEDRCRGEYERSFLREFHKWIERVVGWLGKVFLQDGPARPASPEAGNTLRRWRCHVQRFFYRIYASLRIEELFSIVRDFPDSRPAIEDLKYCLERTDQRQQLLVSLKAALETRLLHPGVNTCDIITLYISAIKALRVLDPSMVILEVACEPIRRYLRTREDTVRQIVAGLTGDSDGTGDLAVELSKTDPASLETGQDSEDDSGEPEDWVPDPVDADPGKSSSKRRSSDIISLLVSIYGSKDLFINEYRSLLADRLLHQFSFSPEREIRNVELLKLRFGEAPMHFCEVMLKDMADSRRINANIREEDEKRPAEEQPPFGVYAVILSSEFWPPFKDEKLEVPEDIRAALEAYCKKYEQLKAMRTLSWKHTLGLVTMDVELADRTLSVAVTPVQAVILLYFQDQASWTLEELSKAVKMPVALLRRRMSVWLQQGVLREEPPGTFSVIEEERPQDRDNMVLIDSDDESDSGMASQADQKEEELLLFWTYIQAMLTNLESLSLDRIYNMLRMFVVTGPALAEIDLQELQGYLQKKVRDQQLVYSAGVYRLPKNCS

| IC50 (APC11/APC2) [µM] | IC50 [1] [µM] | IC50 (TRAF6/Uev1A/Ubc13) [µM] | SMILES |
| --- | --- | --- | --- |
| ≥ 20 | 1 to 20 | ≥ 20 | O=S(=O)(Nc1ccc2[nH]ccc2c1)c1ccc(Cl)c2nonc12 [compound 363, 7-chloro-N-(1H-indol-5-yl)-2,1,3-benzoxadiazole-4-sulfonamide] |
| ≥ 20 | ≥ 20 | ≥ 20 | O=S(=O)(Nc1ccc(F)cc1F)c1ccc(Cl)c2nonc12 [compound 364, 7-chloro-N-(2,4-difluorophenyl)-2,1,3-benzoxadiazole-4-sulfonamide] |
| ≥ 20 | ≥ 20 | ≥ 20 | O=S(=O)(Nc1cc(Cl)ccc1Cl)c1ccc(Cl)c2nonc12 [compound 365, 7-chloro-N-(2,5-dichlorophenyl)-2,1,3-benzoxadiazole-4-sulfonamide] |
| ≥ 20 | 1 to 20 | ≥ 20 | O=S(=O)(Nc1ccccc1OC(F)(F)F)c1ccc(Cl)c2nonc12 [compound 366, 7-chloro-N-(2-[trifluoromethoxy]phenyl)-2,1,3-benzoxadiazole-4-sulfonamide] |
| ≥ 20 | ≥ 20 | ≥ 20 | COc1ccc(OC)c(NS(=O)(=O)c2ccc(Nc3ccccc3OC)c3nonc23)c1 [compound 367, N-(2,5-dimethoxyphenyl)-7-([2-methoxyphenyl]amino)-2,1,3-benzoxadiazole-4-sulfonamide] |
| ≥ 20 | ≥ 20 | ≥ 20 | Cc1cc(NS(=O)(=O)c2ccc(Cl)c3nonc23)no1 [compound 368, 7-chloro-N-(5-methylisoxazol-3-yl)-2,1,3-benzoxadiazole-4-sulfonamide] |
| ≥ 20 | ≥ 20 | ≥ 20 | COc1ccc(OC)c(NS(=O)(=O)c2ccc(N3CCOCC3)c3nonc23)c1 [compound 369, N-(2,5-dimethoxyphenyl)-7-(morpholin-4-yl)-2,1,3-benzoxadiazole-4-sulfonamide] |
| ≥ 20 | 1 to 20 | ≥ 20 | Cc1cc2cc(NS(=O)(=O)c3ccc(Cl)c4nonc34)ccc2[nH]1 [compound 370, 7-chloro-N-(2-methyl-1H-indol-5-yl)-2,1,3-benzoxadiazole-4-sulfonamide] |
| ≥ 20 | ≥ 20 | ≥ 20 | O=S(=O)(Nc1ccc(F)cc1F)c1ccc(Nc2ccc(F)cc2F)c2nonc12 [compound 371, N-(2,4-difluorophenyl)-7-([2,4-difluorophenyl]amino)-2,1,3-benzoxadiazole-4-sulfonamide] |
| ≥ 20 | ≥ 20 | ≥ 20 | O=S(=O)(Nc1ccccc1F)c1ccc(N2CCOCC2)c2nonc12 [compound 372, N-(2-fluorophenyl)-7-(morpholin-4-yl)-2,1,3-benzoxadiazole-4-sulfonamide] |
| 1 to 20 | 1 to 20 | ≥ 20 | O=[N+]([O-])c1ccc(Nc2ccccc2OC(F)(F)F)c2nonc12 [compound 373] |
| ≥ 20 | ≥ 20 | ≥ 20 | O=S(=O)(Nc1ccncn1)c1ccc(Cl)c2nonc12 [compound 374, 7-chloro-N-1,3-pyrimidin-4-yl-2,1,3-benzoxadiazole-4-sulfonamide] |
| ≥ 20 | ≥ 20 | ≥ 20 | Nc1ccc(N2CCOCC2)c2nonc12 [compound 375, 7-(morpholin-4-yl)-2,1,3-benzoxadiazol-4-amine] |
| 1 to 20 | ≥ 20 | ≥ 20 | O=S(=O)(Nc1cccc(F)c1F)c1ccc(Sc2cccc3cccnc23)c2nonc12 [compound 376, N-(2,3-difluorophenyl)-7-(quinolin-8-ylthio)-2,1,3-benzoxadiazole-4-sulfonamide] |
| ≥ 20 | ≥ 20 | ≥ 20 | O=S(=O)(Nc1cccc(F)c1F)c1ccc(Sc2ccncn2)c2nonc12 [compound 377, N-(2,3-difluorophenyl)-7-(pyrimidin-4-ylthio)-2,1,3-benzoxadiazole-4-sulfonamide] |
| 1 to 20 | ≥ 20 | ≥ 20 | COc1ccccc1Sc1ccc(S(=O)(=O)Nc2cccc(F)c2F)c2nonc12 [compound 378, N-(2,3-difluorophenyl)-7-([2-methoxyphenyl]thio)-2,1,3-benzoxadiazole-4-sulfonamide] |
| 1 to 20 | ≥ 20 | 1 to 20 | O=S(=O)(Nc1cccc(F)c1F)c1ccc(Sc2cccc3ccccc23)c2nonc12 [compound 379, N-(2,3-difluorophenyl)-7-(naphthalen-1-ylthio)-2,1,3-benzoxadiazole-4-sulfonamide] |
| ≥ 20 | 1 to 20 | ≥ 20 | O=S(=O)(Nc1ncccc1OCc1ccccc1)c1ccc(Cl)c2nonc12 [compound 380, N-(3-benzyloxypyridin-2-yl)-7-chloro-2,1,3-benzoxadiazole-4-sulfonamide] |
| ≥ 20 | 1 to 20 | ≥ 20 | COc1ccc(C)cc1NS(=O)(=O)c1ccc(Cl)c2nonc12 [compound 381, 7-chloro-N-(2-methoxy-5-methylphenyl)-2,1,3-benzoxadiazole-4-sulfonamide] |
| ≥ 20 | ≥ 20 | ≥ 20 | O=S(=O)(Nc1ncccc1OCc1ccccc1)c1ccc(N2CCOCC2)c2nonc12 [compound 382, N-(3-benzyloxypyridin-2-yl)-7-(morpholin-4-yl)-2,1,3-benzoxadiazole-4-sulfonamide] |
| 1 to 20 | 1 to 20 | 1 to 20 | O=S(=O)(Nc1cccc2ccc(O)cc12)c1ccc(Cl)c2nonc12 [compound 383, 7-chloro-N-(7-hydroxynaphthalen-1-yl)-2,1,3-benzoxadiazole-4-sulfonamide] |
| ≥ 20 | ≥ 20 | 1 to 20 | COc1ccc(C)cc1NS(=O)(=O)c1ccc(Sc2cccc3cccnc23)c2nonc12 [compound 384, N-(2-methoxy-5-methylphenyl)-7-(quinolin-8-ylthio)-2,1,3-benzoxadiazole-4-sulfonamide] |
| ≥ 20 | ≥ 20 | ≥ 20 | O=S(=O)(Nc1cccc2ccc(O)cc12)c1ccc(N2CCOCC2)c2nonc12 [compound 385, N-(7-hydroxynaphthalen-1-yl)-7-(morpholin-4-yl)-2,1,3-benzoxadiazole-4-sulfonamide] |
| ≥ 20 | ≥ 20 | ≥ 20 | COc1cc(C)ccc1NS(=O)(=O)c1ccc(N2CCOCC2)c2nonc12 [compound 386, N-(2-methoxy-4-methylphenyl)-7-(morpholin-4-yl)-2,1,3-benzoxadiazole-4-sulfonamide] |
